{"source": "patent US20040186274A1", "about": "“Methylation of histone h4 at arginine 3” (priority 2001, published 2004)", "test_system": "H4-Arg 3 methylation in HeLa cells", "assay": "TSA treatment of HeLa cells, methylation state of H4-Arg 3 in isolated core histones", "assay_type": "cell-based, human", "conditions": "twelve hours after TSA treatment, hyperacetylated H4", "description": "To determine whether this inhibition occurs in vivo, HeLa cells were treated with a histone deacetylase inhibitor, Tricostatin A (TSA), to induce hyperacetylation. Twelve hours after TSA treatment, core histones were isolated, and the methylation state of H4-Arg 3 was analyzed. […] Therefore, hyperacetylation on lysine residues correlates with hypomethylation of H4 Arg 3.", "data": [{"smiles": "CC(/C=C/C(=O)NO)=C\\[C@@H](C)C(=O)c1ccc(N(C)C)cc1", "note": "[Tricostatin A]", "values": [{"measurement": "H4 Arg 3 methylation level", "value": "almost undetectable"}]}]}
